From patent US12692270B2, “Crystal form of casein kinase 1ϵ inhibitor and preparation method and use thereof” (HANGZHOU HEALZEN THERAPEUTICS CO., LTD., priority 2020, dated 2026) come the findings set out here.

Each structure is given as a SMILES string. Read-outs that look alike come from different tables or passages of the source. Where only a bound is given, the exact number is not on record here.

Series [1] is described as follows: Pharmacokinetic test in rats in vivo, plasma concentration after oral administration. To be noted: for Cmax: 10 mg/kg, intragastric, suspension in sodium carboxymethyl cellulose solution. The procedure:
Experimental method: SD rats were used as experimental animals and intragastrically administrated with a milky white suspension prepared from a sodium carboxymethyl cellulose solution at a dose of 10 mg/kg. After the intragastric administration, blood was collected at the time points of 0.17, 0.33, 0.5, 1, 1.5, 2, 4, 6, 8, 12 and 24 h. 0.3 ml of whole blood was taken and subjected to centrifugation, and then 0.1 ml of plasma was taken and analyzed by LC-MS.

Series [2] is described as follows: Equilibrium solubility of crystal forms in purified water (HPLC). The format is physicochemical. As to conditions: for Water solubility: saturated (equilibrium) solubility in purified water, room temperature, HPLC, methanesulfonate; for Solubility in water (in words): summary of Table 8. An excerpt: Preparation of a standard curve: Appropriate amounts of a series of compounds were accurately weighed, placed in volumetric flasks, and dissolved and diluted with an appropriate amount of acetonitrile to a certain scale to serve as stock solutions. Appropriate amounts of the stock solutions were accurately weighed, placed in volumetric flasks, diluted with a mobile phase to a certain scale, and uniformly shaken to obtain a series of high-concentration standard solutions and low-concentration standard solutions. The standard solutions were separately sampled in the sequence from low concentration to high concentration, and peak areas were recorded. Linear regression was conducted with the compound concentration as the abscissa and the peak area as the ordinate to obtain a linear regression equation of a compound, namely, a standard curve of the solubility of the compound as shown in the formula (I).
Determination of equilibrium solubility: An excess amount of a compound was placed in a 10 mL plugged EP tube, 2 mL of purified water was added, and the compound was subjected to ultrasonic treatment at room temperature for 15 min, followed by standing for 20 min. The above operations were repeated for 4 times, centrifugation was conducted at 3,000 r/min for 10 min, and a supernatant was taken (after the supernatant was properly diluted with a solvent) and filtered through a microporous filtration membrane. A filtrate was taken for HPLC detection, and the peak area was recorded and substituted into the standard curve to calculate the saturated solubility of each compound in water.

Series [3] can be described thus: Pharmacokinetic test in dogs in vivo, plasma concentration after oral administration. To be noted: Beagles. The method, then:
Experimental method: Beagles were used as experimental animals and intragastrically administrated with a milky white suspension prepared from a sodium carboxymethyl cellulose solution at a dose of 10 mg/kg. After the intragastric administration, blood was collected at the time points of 0, 0.5, 1, 2, 3, 4, 6, 8 and 24 h. 0.3 ml of whole blood was taken and subjected to centrifugation, and then 0.1 ml of plasma was taken and analyzed by LC-MS.

Where [4] appears, read: SD, rat, plasma, po, mean n=3, read-out: Cmax.
Setting [5] is: SD rats, mean n=3, methanesulfonate.

On to `COc1ccc(-c2nn([C@@H](C)c3nc4cccc(Cl)c4c(=O)n3-c3ccccc3)c3ncnc(N)c23)c(F)c1F` [(S)-2-(1-(4-amino-3-(2,3-difluoro-4-methoxyphenyl)-1H-pyrazolo[3,4-d]pyrimidin-1-yl)ethyl)-5-chloro-3-phenylquinazoline-4(3H)-one], for which the Cmax in series [1] (setting [4]) is 456 ng/mL.
On to `COc1ccc(-c2nn([C@@H](C)c3nc4cccc(Cl)c4c(=O)n3-c3ccccc3)c3ncnc(N)c23)c(F)c1F.CS(=O)(=O)O` [Crystal form A, (S)-2-(1-(4-amino-3-(2,3-difluoro-4-methoxyphenyl)-1H-pyrazolo[3,4-d]pyrimidin-1-yl)ethyl)-5-chloro-3-phenylquinazoline-4(3H)one methanesulfonate], for which, in series [2], the Water solubility was less than 1.0 µg/mL and the “Solubility in water (in words)” value is recorded as “soluble in water”.
Consider `COc1ccc(-c2nn([C@@H](C)c3nc4cccc(Cl)c4c(=O)n3-c3ccccc3)c3ncnc(N)c23)c(F)c1F.CS(=O)(=O)O` [Crystal form B, (S)-2-(1-(4-amino-3-(2,3-difluoro-4-methoxyphenyl)-1H-pyrazolo[3,4-d]pyrimidin-1-yl)ethyl)-5-chloro-3-phenylquinazoline-4(3H)one methanesulfonate], for which, in series [2], the Water solubility was 2.50 µg/mL and the “Solubility in water (in words)” value is given as “soluble in water”.
`COc1ccc(-c2nn([C@@H](C)c3nc4cccc(Cl)c4c(=O)n3-c3ccccc3)c3ncnc(N)c23)c(F)c1F.CS(=O)(=O)O` [Crystal form C, (S)-2-(1-(4-amino-3-(2,3-difluoro-4-methoxyphenyl)-1H-pyrazolo[3,4-d]pyrimidin-1-yl)ethyl)-5-chloro-3-phenylquinazoline-4(3H)one methanesulfonate]: the peak concentration (Cmax) in series [1] (setting [4]) came out at 1640 ng/mL. In series [2], the Water solubility turned out to be 3.84 µg/mL and the “Solubility in water (in words)” value is listed as “soluble in water”.
`COc1ccc(-c2nn([C@@H](C)c3nc4cccc(Cl)c4c(=O)n3-c3ccccc3)c3ncnc(N)c23)c(F)c1F.CS(=O)(=O)O` [Crystal form D, (S)-2-(1-(4-amino-3-(2,3-difluoro-4-methoxyphenyl)-1H-pyrazolo[3,4-d]pyrimidin-1-yl)ethyl)-5-chloro-3-phenylquinazoline-4(3H)one methanesulfonate] registered a Cmax in series [1] (setting [5]) of 1866.0 ng/mL. Also, in series [2], the Water solubility worked out at 4.60 µg/mL and the “Solubility in water (in words)” value is on record as “soluble in water”.
Turning to `COc1ccc(-c2nn([C@@H](C)c3nc4cccc(Cl)c4c(=O)n3-c3ccccc3)c3ncnc(N)c23)c(F)c1F.CS(=O)(=O)O` [Crystal form E, (S)-2-(1-(4-amino-3-(2,3-difluoro-4-methoxyphenyl)-1H-pyrazolo[3,4-d]pyrimidin-1-yl)ethyl)-5-chloro-3-phenylquinazoline-4(3H)one methanesulfonate], in series [2], the Water solubility was 1.25 µg/mL and the “Solubility in water (in words)” value was “soluble in water”.
`COc1ccc(-c2nn([C@@H](C)c3nc4cccc(Cl)c4c(=O)n3-c3ccccc3)c3ncnc(N)c23)c(F)c1F.CS(=O)(=O)O` [Crystal form F, (S)-2-(1-(4-amino-3-(2,3-difluoro-4-methoxyphenyl)-1H-pyrazolo[3,4-d]pyrimidin-1-yl)ethyl)-5-chloro-3-phenylquinazoline-4(3H)one methanesulfonate] yielded an AUC in series [3] (beagle, dog, plasma, po, intragastric, 10 mg/kg, suspension in sodium carboxymethyl cellulose solution, mean n=2, NA = value lower than the lower detection limit) of 3820 ng·h/mL. This compound also came in with a Cmax in series [1] (setting [5]) of 2855.31 ng/mL. In series [2], the Water solubility came out at 24.80 µg/mL and the “Solubility in water (in words)” value is on record as “soluble in water”.
For the compound `COc1ccc(-c2nn([C@@H](C)c3nc4cccc(Cl)c4c(=O)n3-c3ccccc3)c3ncnc(N)c23)c(F)c1F.CS(=O)(=O)O` [compound as shown in the formula (I), (S)-2-(1-(4-amino-3-(2,3-difluoro-4-methoxyphenyl)-1H-pyrazolo[3,4-d]pyrimidin-1-yl)ethyl)-5-chloro-3-phenylquinazoline-4(3H)one methanesulfonate], the “Pharmacokinetic properties compared with the free alkali (in words)” value in series [3] (oral 10 mg/kg, crystal form F investigated) is “significantly improved”; in series [1] (SD rats, oral 10 mg/kg, crystal forms C, D and F investigated), “significantly improved”.
